≈ marks a conversion by molar mass, not a printed value. Where “and” joins values, the source holds several entries; their conditions need not be identical. Identical values can stand only once. Like-named read-outs stand apart in the source and are kept apart here.
Assays:
Burkholderia spp. = settings: initial MIC testing
M. avium = assay: MIC against CF bacterial strains (Example 5); assay type: cell-based, Mycobacterium avium
Protocol: A range of CF-isolated strains of Mycobacterium avium and Mycobacterium abscessus were included; which allows for understanding of the activity against non-tubercular Mycobacteria (NTM). Two distinct bismuth-thiol compounds were evaluated, including BisEDT and BisBDT. […] The CF-isolates of greater clinical relevance, including both M abscessus spp. and Burkholderia spp., were both consistently found to be much more susceptible to BisEDT and BisBDT.

[1] = Aerosol testing of BisEDT suspension formulations (aerosol concentration, particle size); assay type: physicochemical; settings: Lot # ED268-1-11-01; 25 mg/mL formulation
From the text: Objective: The objective of this study was to develop methods for the nose-only inhalation exposures of BisEDT for rodents. The aerosols were generated from suspension formulations of BisEDT in aqueous media (0.5% TWEEN 80® in Sodium Phosphate Buffer, pH 7.4). […] Suspension formulations were created by sonication with neat API with 0.5% TWEEN 80® in Sodium Phosphate Buffer, pH 7.4. This was further refined by adjusting the vehicle to an osmolality of 300 mOsmol/kg. Aerosols were characterized for particle size distribution and aerosol concentration. Aerosol concentration was determined by differential mass and chemical analysis of the aerosol filter samples.
Aerosol Methods: Formulation—Suspension formulations of BisEDT were prepared in 0.5% TWEEN 80® in Sodium Phosphate Buffer, pH 7.4. Suspensions of 2.5, 10, 25, 50, 75 and 100 mg/mL were prepared by sonication with a Covaris sonicator. In later tests, the vehicle was adjusted with sodium chloride to achieve an Osmolality of 300 mOsmol/kg. Suspensions were prepared at 2.5, 50, and 100 mg/mL.
Aerosol concentration was measured at the breathing zone of the exposure system by collection of the aerosol onto 47-mm filters (Whatman GF/A membrane filters). Filter samples were collected at a nominal flowrate of 0.3 L/min. Aerosol mass concentration was determined by differential weight analysis of the filter samples. […]

[2] = Face mask inhalation in beagle dogs: clinical chemistry; assay type: in vivo; settings: sampling times not given
Protocol: Once adequately conditioned to the restraint device and face-masks, the animals are individually exposed to the test article aerosols. Animals receive a single face-mask inhalation exposure in a ramp study design to test article aerosols for up to 60 min. Animal observations during and post exposure determine the tolerance of inhaled BisEDT aerosols.
Group 1 (vehicle) are exposed to a vehicle atmosphere for 30 minutes. Group 2 (50 μg/kg) are exposed to BisEDT for 30 minutes. Target concentrations and exposure durations for Groups 3-5 are based on the presence of any toxicity via clinical observations or gross necropsy findings. In each of Groups 3-5, if no adverse clinical signs of toxicity are observed, the next groups' exposure will be conducted at a higher target dose. If adverse clinical signs of toxicity are observed, the next groups' exposure will be conducted at a lower target dose. This approach is repeated for all BisEDT doses. The final documented exposure duration is the maximum tolerated dose or the maximum feasible dose.
The aerosol generation system couples a commercially available compressed air jet nebulizer to a chamber that allows the aerosols to transition to the animals. Exposure is by face-mask inhalation per the study design above. […] Formulation concentration and exposure duration are modulated to achieve target doses if necessary.
Blood Collections and Bioanalytical Analysis: Blood are collected for pharmacokinetic (PK) analysis prior to exposure, then at 4 hr (±5 min) post exposure, and again on Day 1, Day 2, Day 7 (pre- and 4 hr (±5 min)-post exposure), Day 8, Day 9, Day 10, Day 11, Day 12, Day 13, and Day 14. A total of 0.25 mL is collected at each timepoint. No PK blood is collected from the vehicle control (Group 1) animals; only animals exposed to BisEDT have blood collected for PK analysis. Collected samples are flash frozen without processing for shipment to Medpace for bioanalytical analysis. Additional blood is collected from all animals in all groups for hematology (1 mL) and clinical chemistry (1 mL) at baseline, Day 7 (pre-exposure), and again at euthanasia. Blood (2-2 mL) is collected from all animals at necropsy for coagulation analysis (d-Dimer, fibrinogen, PT, and PTT).
For clinical chemistry analyses, whole blood (1 mL) is placed into serum separator or clot tube and […] by centrifugation at a minimum of 1300 g at 2 to 8° C. for 10 (±1) min. Plasma samples are stored at −70 to −90° C. until analysis.
Clinical chemistry samples are analyzed on a Hitachi Modular Analytics Clinical Chemistry System (Roche Diagnostics, Indianapolis, Ind.).

[3] = Grp 1 (1001 Male, 1002 Female, Avg), 3 lines per subject
[4] = Grp 2 (2001 Male, 2002 Female, Avg), 3 lines per subject
[5] = Grp 3 (3001 Male, 3002 Female, Avg), 3 lines per subject
[6] = Grp 4 (4001 Male, 4004 Female, Avg; 4002 Female, 4003 Male), 2-3 lines per subject

C[C@@H](O)[C@H]1C(=O)N2C(C(=O)O)=C(S[C@@H]3CN[C@H](C(=O)N(C)C)C3)[C@H](C)[C@H]12 [MEM]
MIC (Burkholderia spp.; B. multivorans isolate 1580 (CIP-R)): 2 µg/mL (≈ 5.22 µM)
MIC (Burkholderia spp.; B. multivorans isolate 1791): 4 µg/mL (≈ 10.4 µM)
MIC (Burkholderia spp.; B. multivorans isolate 1795 (MEM-I, CIP-R)): 8 µg/mL (≈ 20.9 µM)
MIC (Burkholderia spp.; B. multivorans isolate 5665 (CIP-I)): 2 µg/mL (≈ 5.22 µM)
MIC (Burkholderia spp.; B. multivorans isolate 8952 (CIP-I)): 2 µg/mL (≈ 5.22 µM)

CC(S)C(C)S.[Bi] (stereo not shown) [BisBDT, bismuth-2,3-butanedithiol]
MIC (M. avium; Mycobacterium avium): > 16 µg/mL
MIC (M. avium; strain MAC101, MAC reference strain, blood isolate from HIV patient): 1 µg/mL

C1C[S][Bi]([S]CC[S][Bi]2[S]CC[S]2)[S]1 [BisEDT, bismuth-1,2-ethanedithiol]
BisEDT Aerosol Conc., average of all extracted concentrations incl. outlier filter [1]: 64.4 µg/L
AGR [2, 3]: 2.6 and 1.9 (2×) and 2.1 (2×)
ALB [2, 3]: 3.7 g/dL
ALPK [2, 3]: 125 IU/L and 120 IU/L and 248 IU/L and 243 IU/L and 235 IU/L and 91 IU/L
ALT [2, 3]: 26 IU/L and 27 IU/L and 29 IU/L and 21 IU/L
AST [2, 3]: 33 IU/L (2×) and 29 IU/L (2×) and 27 IU/L
BUN [2, 3]: 13 mg/dL (2×) and 17 mg/dL
CA2 [2, 3]: 10.3 mg/dL
CHOL [2, 3]: 129 mg/dL and 116 mg/dL and 132 mg/dL and 130 mg/dL and 107 mg/dL
CREA [2, 3]: 0.5 mg/dL
GLOB [2, 3]: 1.4 g/dL and 1.5 g/dL and 1.8 g/dL
GLUC [2, 3]: 88 mg/dL and 89 mg/dL and 90 mg/dL and 78 mg/dL and 92 mg/dL (2×)
K [2, 3]: 4.5 mmo/L and 4.7 mmo/L (2×) and 4.2 mmo/L and 5.1 mmo/L
Na [2, 3]: 150 mmo/L
TP [2, 3]: 5.5 g/dL and 4.9 g/dL
TRIG [2, 3]: 32 mg/dL and 29 mg/dL and 53 mg/dL and 39 mg/dL and 38 mg/dL and 37 mg/dL
AGR [2, 4]: 1.9 and 2.0 and 1.7 and 2.3 (2×)
ALB [2, 4]: 3.4 g/dL and 3.7 g/dL
ALT [2, 4]: 22 IU/L (3×) and 18 IU/L and 29 IU/L and 27 IU/L
AST [2, 4]: 48 IU/L and 36 IU/L (2×) and 35 IU/L and 41 IU/L and 38 IU/L
BUN [2, 4]: 12 mg/dL and 16 mg/dL and 14 mg/dL (2×)
CHOL [2, 4]: 114 mg/dL
Cl [2, 4]: 108 mmo/L and 110 mmo/L and 114 mmo/L
GLOB [2, 4]: 2.0 g/dL and 1.9 g/dL and 1.6 g/dL (2×)
GLUC [2, 4]: 91 mg/dL and 97 mg/dL and 95 mg/dL and 89 mg/dL
K [2, 4]: 4.5 mmo/L and 4.9 mmo/L and 5.0 mmo/L and 5.2 mmo/L and 4.6 mmo/L
TP [2, 4]: 5.0 g/dL and 5.5 g/dL and 5.3 g/dL
TRIG [2, 4]: 66 mg/dL and 80 mg/dL and 63 mg/dL and 38 mg/dL and 39 mg/dL and 31 mg/dL
AGR [2, 5]: 2.0 (2×) and 2.1 and 2.3 and 1.8 and 2.6
ALB [2, 5]: 3.2 g/dL and 3.7 g/dL
ALPK [2, 5]: 90 IU/L
ALT [2, 5]: 26 IU/L and 24 IU/L and 28 IU/L and 20 IU/L (2×)
AST [2, 5]: 33 IU/L and 28 IU/L
BUN [2, 5]: 13 mg/dL and 17 mg/dL and 33 mg/dL and 11 mg/dL and 25 mg/dL
CHOL [2, 5]: 100 mg/dL
CREA [2, 5]: 0.7 mg/dL and 0.5 mg/dL and 0.9 mg/dL
Cl [2, 5]: 110 mmo/L
GLOB [2, 5]: 1.7 g/dL and 2.0 g/dL and 1.4 g/dL
GLUC [2, 5]: 100 mg/dL and 88 mg/dL and 51 mg/dL and 112 mg/dL and 90 mg/dL and 65 mg/dL
K [2, 5]: 4.7 mmo/L and 5.8 mmo/L and 5.5 mmo/L and 5.3 mmo/L
TP [2, 5]: 4.8 g/dL and 5.0 g/dL (2×) and 5.5 g/dL
TRIG [2, 5]: 26 mg/dL and 34 mg/dL (2×) and 52 mg/dL and 43 mg/dL and 58 mg/dL
AGR [2, 6]: 2.3 and 2.0 and 1.7 (2×) and 1.6
ALB [2, 6]: 3.6 g/dL and 3.2 g/dL
ALT [2, 6]: 27 IU/L (2×) and 25 IU/L and 24 IU/L and 20 IU/L and 21 IU/L and 40 IU/L and 23 IU/L
AST [2, 6]: 32 IU/L (2×) and 34 IU/L and 38 IU/L and 31 IU/L and 35 IU/L and 30 IU/L
BUN [2, 6]: 11 mg/dL (2×) and 16 mg/dL and 15 mg/dL
CHOL [2, 6]: 147 mg/dL and 125 mg/dL and 124 mg/dL and 182 mg/dL and 169 mg/dL and 176 mg/dL
CREA [2, 6]: 0.5 mg/dL
GLOB [2, 6]: 1.6 g/dL and 2.1 g/dL (2×) and 2.0 g/dL
GLUC [2, 6]: 82 mg/dL and 86 mg/dL and 70 mg/dL and 96 mg/dL and 79 mg/dL and 109 mg/dL and 81 mg/dL
K [2, 6]: 4.8 mmo/L and 4.6 mmo/L and 5.1 mmo/L and 4.3 mmo/L and 5.3 mmo/L (2×) and 4.9 mmo/L (2×)
TP [2, 6]: 4.9 g/dL and 5.1 g/dL and 5.6 g/dL and 5.5 g/dL and 5.4 g/dL (2×)
TRIG [2, 6]: 49 mg/dL (2×) and 46 mg/dL and 40 mg/dL and 53 mg/dL (2×) and 44 mg/dL and 34 mg/dL and 41 mg/dL and 55 mg/dL

From patent publication US11464749B2, “Bismuth-thiol compositions and methods of use” (Microbion Corporation, priority 2018, dated 2022)
